Paper PMC6348381, “Discovery of an MLLT1/3 YEATS Domain Chemical Probe” (Angewandte Chemie (International Ed. in English), 2018)

How the values were obtained:
MLLT3 YD = target: T1, MLLT3 YD (Homo sapiens, UniProt P42568); experiment: Isothermal titration calorimetry (ITC), MLLT3 YD; type: binding
T1 construct: made in house; host or cells: E. coli Rosetta
Description: Supplementary Table 1. AlphaScreen selectivity screen of compound 92 over other acyllysine […]
II.III Isothermal Titration Calorimetry (ITC)
Experiments were carried out on a Nano -ITC Standard Volume Instrument (TA Instruments).
All experiments were carried out at 25 °C in 20 mM HEPES pH 7.5, 150 mM NaCl, 0.5 mM TCEP and 5% glycerol. Protein soluti ons were buffer exchanged by gel filtration. The titrations were conducted using an initial injection of 2 μL followed by 32 injections of 8 μL.
Background dilution heat was subtracted from each experiment. Thermodynamic parameters […]
changes in free energy, enthalpy and entropy respectively. Independent single site binding models were employed in data analysis.
(also on this page, place not known: ac yllysine Nano-ITC -T 1/ KB. ΔH Molar&ratio&[injectant/cell] Time&[s] Corrected&Heat&Rate&[ucal/s] Experiment&1 K Experiment&2 K K)
(§1) (1 picture or pasted object on this page, not shown here)

YEATS2 = target: T2, YEATS2 (Homo sapiens, UniProt Q9ULM3); experiment: AlphaScreen selectivity screen, YEATS2; type: binding
T2 construct: made in house; host or cells: E. coli Rosetta
From the text: (§2) IC50 (µM) IC50 (µM) IC50 (µM) IC50 (µM) (µM) (µM) (µM)
(§3) Supplementary Table 1. […]

CECR2 = CECR2 (Homo sapiens, UniProt Q9BXF3); experiment: AlphaScreen selectivity screen, CECR2; type: binding
From the text: as §2, §3

CBP = target: T3, CBP (Homo sapiens, UniProt Q92793); experiment: AlphaScreen selectivity screen, CBP; type: binding
T3 construct: made in house
From the text: as §2, §3

MLLT1 = target: T4, MLLT1 (Homo sapiens, UniProt Q03111); experiment: NanoBRET assay, full length MLLT1:Histone 3.3 in HEK293 cells; type: cell-based; settings: relative to the DMSO control
T4 construct: We also developed a full length MLLT1:Histone 3.3 (H3.3) NanoBRET assay; host or cells: HEK293
Description: transfected with Histone H3.3-HaloTag (NM_002107) and a NanoLuciferase fusion of MLLT1 or MLLT3 (WT sequences from Promega HaloTag® human ORF in pFN21A) at a 1:500 and 1:10 (NanoLuc® to HaloTag®) ratio respectively with FuGENE HD transfection regent. Sixteen hours post-transfection, cells were collected and exchanged into media containing phenol red-free DMEM and 4% FBS in the absence (control sample) or the
Compounds were then added directly to media (in the presence of SAHA 2.5 M) at final concentrations 0.01-30 μM or an equivalent amount of DMSO as a vehicle control, and the plates were incubated for 24 h at 37 °C in the presence
NanoBRET Nano-Glo substrate (Promega) was added to both control and experimental samples at a final concentration of 10 µM. Readings were performed within 5 minutes using
BRET ratios are expressed as milliBRET units (mBU), where 1 mBU corresponds to the corrected BRET ratio multiplied by 1000.
Mean±SD of BRET ratio (mBU), n=4 technical replicates.

[1] = Metabolic stability in primary human hepatocytes; type: in vitro ADME
Description: page 98: II.IX in vitro Metabolism Studies Metabolic stability studies were carried out exposing nominated compounds to samples of primary human hepatocytes . Compounds were analysed by LC -MS for loss of parent compound at 0, 10, 30, 60 and 120-minute time points and analysis of metabolites formed . […] 1000000 500000 0 0 min 10 min 30 min 60 min 120 min Supplementary Figure 8.

MLLT1 YD = target: T5, MLLT1 YD (Homo sapiens, UniProt Q03111); experiment: AlphaScreen (AS) assay, MLLT1 YEATS domain; type: binding
T5 construct: made in house; host or cells: E. coli Rosetta
T5 sequence (Q03111 1-138 limits assumed): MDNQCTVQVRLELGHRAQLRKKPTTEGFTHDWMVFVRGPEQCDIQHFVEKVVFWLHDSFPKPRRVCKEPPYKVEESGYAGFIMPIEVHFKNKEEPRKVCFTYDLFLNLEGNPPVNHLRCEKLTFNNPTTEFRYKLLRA
Description: II.IV Protein Expression and Purification
Human bromodomains were cloned, expressed and purified as previously described. The cloning, expression and purification of human YEATS domains are described as follows; Sequences for the wild type YEATS domains of MLLT1, MLLT3, GAS41 and YEATS2 were cloned into expression vectors (Table S1). E. coli Rosetta cells were grown in TB medium at 37°C. Overexpression was induced after five hours by addition of IPTG to a final concentration of 0.4 mM and cells were incubated at 17°C overnight. Cells were harvested by centrifugation and the cell pellet was resuspended in cold binding buffer (50 mM Tris at pH 7.5, 500 mM NaCl, 20 mM imidazole, 2 mM DTT) on a magnetic stirring plate at 4°C. The suspension was lysed using an Avestin EmulsiFlex-C5 homogeniser (1 pass without pressure, four passes with pressure between 1000-1500 bar). The lysate was clarified via centrifugation at 16,000 rpm at 4°C for 1 hour (JLA-16 rotor in Beckmann Coulter Avanti J- […]
The supernatant was loaded onto a standard NiNTA column (HisTrap
FF, 5 ml, GE Healthcare Lifesciences) on an ÄKTAxpress system (GE). After washing with binding buffer, the target protein was eluted at 300 mM imidazole. The eluted peak fractions were pooled and concentrated to 5 ml (Amicon concentrators, 10 kDa molecular weight cut off (MWCO)) and then separated via size exclusion chromatography (buffered with 20 mM Tris at pH 7.5, 500 mM NaCl, 2 mM DTT) using a GE Superdex 75 column on an […]
(NanoDrop ND-1000 Spectrophotometer) and protein identity was verified via SDS-PAGE and LC/MS. Pooled fractions were then again concentrated to at least 2 mg/ml and stored at […]
as §1

T3 sequence (Q92793 1085-1192 limits assumed): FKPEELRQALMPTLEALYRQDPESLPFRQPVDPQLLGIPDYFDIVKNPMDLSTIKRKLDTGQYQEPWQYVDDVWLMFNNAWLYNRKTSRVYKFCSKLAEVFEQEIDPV
Sequence of CECR2 (Q9BXF3 434-538 limits assumed): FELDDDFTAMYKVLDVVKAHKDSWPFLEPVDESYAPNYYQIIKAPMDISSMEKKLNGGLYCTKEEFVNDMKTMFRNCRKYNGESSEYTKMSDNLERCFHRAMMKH
T4 sequence (Q03111 whole entry): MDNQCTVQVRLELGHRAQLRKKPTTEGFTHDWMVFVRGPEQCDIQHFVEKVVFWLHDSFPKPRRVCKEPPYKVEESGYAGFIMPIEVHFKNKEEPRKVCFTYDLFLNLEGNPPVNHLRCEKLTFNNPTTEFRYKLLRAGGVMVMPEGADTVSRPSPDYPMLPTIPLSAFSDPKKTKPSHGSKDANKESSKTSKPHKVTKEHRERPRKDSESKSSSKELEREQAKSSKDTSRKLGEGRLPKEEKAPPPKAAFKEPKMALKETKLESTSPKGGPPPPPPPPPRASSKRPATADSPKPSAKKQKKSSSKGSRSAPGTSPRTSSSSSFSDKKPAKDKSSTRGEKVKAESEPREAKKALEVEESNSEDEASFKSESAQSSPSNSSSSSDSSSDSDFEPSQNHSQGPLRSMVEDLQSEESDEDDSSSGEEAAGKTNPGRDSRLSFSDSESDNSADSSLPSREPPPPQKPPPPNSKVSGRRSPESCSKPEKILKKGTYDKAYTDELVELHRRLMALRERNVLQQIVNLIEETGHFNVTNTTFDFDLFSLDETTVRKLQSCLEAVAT
T2 sequence (Q9ULM3 200-345 limits assumed): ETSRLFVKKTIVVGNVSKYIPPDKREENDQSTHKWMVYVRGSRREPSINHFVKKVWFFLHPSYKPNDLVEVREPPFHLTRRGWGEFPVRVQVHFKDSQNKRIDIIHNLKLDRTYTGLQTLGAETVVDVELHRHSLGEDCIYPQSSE
T1 sequence (P42568 1-138 limits assumed): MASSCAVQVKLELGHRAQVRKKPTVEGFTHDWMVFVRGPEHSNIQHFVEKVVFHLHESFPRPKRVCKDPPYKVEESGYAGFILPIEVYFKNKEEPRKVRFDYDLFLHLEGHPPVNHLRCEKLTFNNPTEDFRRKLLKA

Structure (SMILES) | Kd (MLLT3 YD) [nM] | IC50 (YEATS2) [nM] | inhibition of CECR2 (CECR2; 10 μM using AS) | IC50 (CECR2; AlphaScreen selectivity screen, read-out: CECR2 (2) IC50) [nM] | inhibition of CBP (CBP; 10 μM using AS) | IC50 (CBP; AlphaScreen selectivity screen) [nM] | BRET activity (mBU), MLLT1:H3.3 NanoBRET (MLLT1) | parent remaining after 60 min ([1]; 60 min) [%] | half-life ([1]; human, read-out: metabolic stability t1/2) [min] | IC50 (MLLT1 YD) [nM]
C[C@H]1CCCN1Cc1nc2cc(NC(=O)c3ccc4c(cnn4C)c3)ccc2[nH]1 [Compound 92] | 77 | > 10000 | no inhibition | > 10000 | no inhibition | > 10000 | no reduction in mBU | 48 | 53 | –
COC(=O)c1ccc(C(=O)Nc2ccc3[nH]c(CN4CCCCC4)nc3c2)cc1 [Compound 1] | – | – | – | – | – | – | – | – | – | 2100 ± 780
